From patent publication US20040143025A1, “Carbon monoxide generating compunds for treatment of vascular, inflammatory and immune disorders” (priority 2002, published 2004)
“Also recorded” adds a separate entry of the source.

How the values were obtained:
[1] = test system: LEW rats transplanted with DA livers; assay: Allogeneic orthotopic liver transplant (OLT) model: survival, histology, sGOT; assay type: in vivo, rat
Procedure: Ad-HO-1 transduction in OLT model. Male Dark-Agouti (DA; RT1^3) and Lewis (LEW; RT1′) rats of 10-16 weeks of age were purchased from Harlan Sprague Dawley, Inc. (San Diego, Calif.), and maintained under conditions approved by the UCLA Chancellor's Animal Research Committee (CARC). All animals were housed in microisolator cages in a virus free facility and fed laboratory chow ad libitum. Orthotopic liver transplants were performed between DA donors and LEW rat recipients, as described previously. Amersi et al., supra; Kato et al., Am. J. Transplant 1:121-28 (2001). Ex-vivo gene transfer into liver grafts was performed during cold preservation (4° C.) via perfusion of the portal vein with 2 ml of cold lactated Ringer's solution containing 5×10^10 pfu (plaque-forming unit) of Ad-HO-1. Control grafts were perfused with 5×10^10 pfu of Ad-β-gal. Animals were followed for survival. Separate groups of recipients were sacrificed at day 3, 7 and 10 post-transplant, OLTs were harvested for histological evaluation, whereas blood samples were collected for measurement of sGOT levels.
Methylene chloride treatment in OLT model To investigate whether CO represents a functional downstream HO-1 mediator in this system, methylene chloride was used as a carbon monoxide generator. As indicated above, the metabolism of MC is known to result in the exclusive production of CO2 and CO. Gargas et al., supra. LEW rats transplanted with DA livers were fed with methylene chloride (500 mg/kg) 2 hr prior to the transplant, followed by a 2-week post-transplant course (500 mg/kg/day). The blood CoHb levels in experimental animals were measured at day 0, 5, and 10. Animal survival was screened and OLTs were analyzed histologically.
Histology. Liver allografts were harvested at day 3, 7 and 10 post-transplant. The tissue was sliced into small pieces, preserved in 10% neutral-buffered formalin, cut into 5-μm section, and stained with hematoxylin and eosin (H&E) by standard methods.

Lewis rats = assay: Experimental autoimmune encephalomyelitis (EAE) model of multiple sclerosis; assay type: in vivo, rat; details: daily oral administration from day 8 post-inoculation; scale 0 to 3
Procedure: Multiple sclerosis is characterized by an autoimmune and inflammatory response directed against myelin sheath and oligodendrocytes, resulting in demyelination in the central nervous system. A well-established animal model of multiple sclerosis, experimental autoimmune encephalomyelitis (EAE), was used to examine the effect of the subject alkyl halides on this autoimmune and inflammatory condition of the central nervous system. Lewis rats were given intradermal footpad injections of 50 μg guinea pig myelin basic protein (MBP) and complete Freund's adjuvant (CFA) to induce experimental allergic encephalomyelitis (EAE). Daily oral administration of vehicle, methylene chloride or iodoform was started on day 8 post-inoculation and continued to the end of the study. Animals were monitored and scored on a 0 (normal) to 3 (complete hindlimb paralysis) scale. Daily mean±SD clinical scores are shown.

## ClCCl [methylene chloride]
[1]; OLT by day 10 post-transplant
  hepatic parenchyma viable / preserved: more than 80%
  histological grade of rejection: mild to moderate rejection
[1]; allogeneic OLT
  recipients/livers surviving >120 days: two out of seven
[1]; allogeneic OLT, vectors 5×10^10 pfu ex vivo perfusion, methylene chloride 500 mg/kg/day × 14 days
  mean survival time [MST]±SD: > 47 ± 46 days
[1]; daily feedings with methylene chloride alone
  rat recipients surviving >3 weeks: ca. 50%
[1]; methylene chloride 500 mg/kg/day × 14 days, OLT recipients
  tolerability of regimen: well tolerated and no side effects were noted; also recorded: well tolerated
[1]; treatment protocol as in Table 1
  Mean (days) recipient survival: >47 days
Lewis rats
  clinical score / clinical signs: show improvement over the controls
